Measurements reported in ChEMBL document CHEMBL3112544, “Discovery of ZAP70 inhibitors by high-throughput docking into a conformation of its kinase domain generated by molecular dynamics” (Bioorg Med Chem Lett, 2013).
Activity calls are given as the source filed them. The rule behind the calls is not given here.

Columns and labels:
[1] = target: T1, Tyrosine-protein kinase ZAP-70 (Homo sapiens) (UniProt P43403); assay: Inhibition of full-length ZAP70 (unknown origin) at 20 uM by radioactive ATP method
T1 sequence (whole entry): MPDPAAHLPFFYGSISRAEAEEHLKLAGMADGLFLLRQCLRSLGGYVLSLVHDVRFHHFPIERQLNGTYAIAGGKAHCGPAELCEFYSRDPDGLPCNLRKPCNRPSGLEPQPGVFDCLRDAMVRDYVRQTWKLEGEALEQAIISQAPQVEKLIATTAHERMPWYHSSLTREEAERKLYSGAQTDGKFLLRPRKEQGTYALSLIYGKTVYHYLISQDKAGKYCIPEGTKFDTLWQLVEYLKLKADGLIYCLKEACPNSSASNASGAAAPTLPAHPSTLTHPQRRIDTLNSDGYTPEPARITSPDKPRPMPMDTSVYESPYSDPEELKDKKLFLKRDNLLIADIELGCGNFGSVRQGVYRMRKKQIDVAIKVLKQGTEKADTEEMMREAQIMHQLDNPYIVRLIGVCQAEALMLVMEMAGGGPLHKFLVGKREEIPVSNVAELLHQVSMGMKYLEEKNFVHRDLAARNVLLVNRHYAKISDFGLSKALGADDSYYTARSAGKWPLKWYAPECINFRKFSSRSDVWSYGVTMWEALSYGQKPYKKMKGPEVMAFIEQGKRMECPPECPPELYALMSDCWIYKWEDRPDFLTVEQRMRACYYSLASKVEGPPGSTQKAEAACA

[2] = target: T2, Tyrosine-protein kinase SYK (Homo sapiens, UniProt P43405); assay: Inhibition of SYK (unknown origin) at 20 uM by radioactive ATP method
[3] = target: T3, Tyrosine-protein kinase JAK2 (Homo sapiens, UniProt O60674); assay: Inhibition of JAK2 (unknown origin) by radioactive ATP method
[4] = target: T2, Tyrosine-protein kinase SYK; assay: Inhibition of SYK (unknown origin) by radioactive ATP method
[5] = target: T4, Tyrosine-protein kinase ZAP-70 (Homo sapiens, UniProt P43403); assay: Inhibition of full-length ZAP70 (unknown origin) by radioactive ATP method
T4 sequence (P43403 whole entry): T1 sequence (whole entry)

[6] = target: T3, Tyrosine-protein kinase JAK2; assay: Inhibition of JAK2 (unknown origin) at 20 uM by radioactive ATP method

T3 sequence (O60674 whole entry): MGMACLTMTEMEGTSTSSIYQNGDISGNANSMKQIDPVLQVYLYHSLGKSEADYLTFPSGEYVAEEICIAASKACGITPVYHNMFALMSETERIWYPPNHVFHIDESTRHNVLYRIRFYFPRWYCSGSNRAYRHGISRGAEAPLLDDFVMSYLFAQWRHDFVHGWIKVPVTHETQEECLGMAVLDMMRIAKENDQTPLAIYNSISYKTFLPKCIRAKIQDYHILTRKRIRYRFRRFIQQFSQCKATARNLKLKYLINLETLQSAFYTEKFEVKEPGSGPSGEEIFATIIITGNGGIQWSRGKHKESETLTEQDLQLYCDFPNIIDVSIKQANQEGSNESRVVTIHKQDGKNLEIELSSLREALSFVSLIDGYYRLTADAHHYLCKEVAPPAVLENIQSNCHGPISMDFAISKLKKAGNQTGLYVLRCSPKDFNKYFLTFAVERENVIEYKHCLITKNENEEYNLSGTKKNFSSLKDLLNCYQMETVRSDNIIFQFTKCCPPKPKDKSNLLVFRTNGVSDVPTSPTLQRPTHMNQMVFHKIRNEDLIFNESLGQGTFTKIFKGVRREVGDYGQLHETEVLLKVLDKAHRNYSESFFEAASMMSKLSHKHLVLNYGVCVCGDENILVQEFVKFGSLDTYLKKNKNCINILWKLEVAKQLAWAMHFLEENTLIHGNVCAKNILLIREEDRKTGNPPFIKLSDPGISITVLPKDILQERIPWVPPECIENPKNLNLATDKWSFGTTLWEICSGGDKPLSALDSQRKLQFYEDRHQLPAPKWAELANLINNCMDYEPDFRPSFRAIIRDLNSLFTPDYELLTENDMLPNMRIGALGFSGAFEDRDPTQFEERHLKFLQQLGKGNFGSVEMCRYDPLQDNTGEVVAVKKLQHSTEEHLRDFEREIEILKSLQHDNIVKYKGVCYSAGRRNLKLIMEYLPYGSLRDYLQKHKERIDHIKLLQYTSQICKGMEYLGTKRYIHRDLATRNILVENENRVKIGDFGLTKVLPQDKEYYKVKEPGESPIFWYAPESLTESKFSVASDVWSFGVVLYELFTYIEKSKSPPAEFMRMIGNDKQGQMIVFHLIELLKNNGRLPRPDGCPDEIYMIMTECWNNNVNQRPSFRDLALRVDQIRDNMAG

| Structure (SMILES) | inhibition [1] | further results |
| --- | --- | --- |
| O=C1N/C(=C/c2ccc(O)cc2)C(=O)N1c1ccccc1 | inactive | – |
| Nc1ccc(C(=O)N2CCc3[nH]nc(-c4cc(F)cc(F)c4)c3C2)cn1 | inactive | – |
| O=C1NN(c2ccccc2)C(=O)/C1=C/c1ccc(-c2ccccc2)o1 | 49% | inhibition [2]: 17% |
| O=C1Nc2ccc(S(=O)(=O)Cc3ccc4ccccc4c3)c3cccc1c23 | inactive | – |
| Oc1ccc(-c2ccnc3cc(Cl)ccc23)cc1CN1CCCCC1 | inactive | – |
| O=C1NC(=O)N(c2ccccc2F)C(=O)/C1=C\c1cccn1-c1ccccc1 | inactive | – |
| O=C(c1ccc2[nH]c(=O)[nH]c2c1)N1CCc2[nH]nc(-c3ccccc3)c2C1 | inactive | – |
| N#C/C(=C1/C(=O)Nc2ccccc21)c1nc2ccccc2[nH]1 | inactive | – |
| O=C1Nc2ccc3c(oc4ccccc43)c2C1=NNc1ccncc1 | – | IC50 [3]: 11 µM; IC50 [4]: 26 µM; IC50 [5]: 8 µM |
| CCn1c(N)c(-c2csc(-c3ccc(O)cc3)n2)c(=O)[nH]c1=O | inactive | – |
| O=C1NC(=O)N(c2cccc(F)c2)C(=O)/C1=C\c1cccn1-c1ccccc1 | inactive | – |
| O=C1NC(=O)N(c2ccc(F)cc2)C(=O)/C1=C\c1cccn1-c1ccc(O)cc1 | inactive | – |
| O=C1NC(=S)N/C1=C1\C(=O)N(Cc2ccccc2Cl)c2ccccc21 | – | IC50 [4]: 168 µM; IC50 [5]: 21 µM |
| Cc1cc(/C=C2/C(=O)NN(c3ccccc3)C2=O)c(C)n1-c1cccc(O)c1 | 43% | inhibition [2]: 16% |
| CCOc1ccc(Nc2nc(N)c(C(=O)c3cccc(OC)c3)s2)cc1 | – | IC50 [4]: > 200 µM; IC50 [5]: 29 µM |
| COc1ccc(/C=C2/NC(=O)N(c3cccc(Cl)c3)C2=O)cc1O | inactive | – |

| Structure (SMILES) | inhibition [1] | further results |
| --- | --- | --- |
| O=C1NN(c2ccccc2)C(=O)/C1=C/c1ccc(-c2ccccc2Cl)o1 | – | IC50 [4]: 57 µM; IC50 [5]: 14 µM |
| COc1ccc(Nc2nc(N3CCOCC3)c3nc[nH]c3n2)cc1OC | – | IC50 [3]: 0.11 µM; IC50 [4]: 12 µM; IC50 [5]: 62 µM |
| O=C1NN(c2ccc(F)cc2)C(=O)/C1=C\c1cccc(OCc2ccccc2F)c1 | 46% | inhibition [2]: 16%; inhibition [6]: 22% |
| O=C1NN(c2ccccc2)C(=O)/C1=C\c1cc(Cl)ccc1OCc1ccccc1 | – | IC50 [3]: 15 µM; inhibition [2]: 16%; IC50 [5]: 22 µM |
| O=c1[nH]c2ccc(S(=O)(=O)NC3CC3)cc2c2ccccc12 | inactive | – |
| COc1ccc(NC2=NC3NN=C(N)C3C3=C2CN(C)CC3)cc1 (stereo unspecified) | inactive | – |
| Clc1cccc(C2C=C(c3cccnc3)Nc3nc4ccccc4n32)c1 (stereo unspecified) | inactive | – |
| CC(C)c1ccc(-c2c(C#N)c(N)nc3sc(C(N)=O)c(N)c23)cc1 | inactive | – |
| COc1cccc(-c2ccnc3[nH]n(-c4ccccc4)c(=O)c23)c1 | inactive | – |
| N[C@@H](CO)C(=O)N1CCc2[nH]nc(-c3ccc(F)c(F)c3)c2C1 | inactive | – |
| Cc1cc(NC(=O)c2sc(Nc3ccccc3)nc2N)on1 | inactive | – |
| Cc1ccc(-c2n[nH]c3c2CN(c2ncc(F)c(NCCO)n2)CC3)cc1 | inactive | – |
| O=C(c1ccc2[nH]cnc2c1)N1CCc2[nH]nc(-c3cccc(Cl)c3)c2C1 | inactive | – |
| CC(=O)Nc1ccc(OS(=O)(=O)c2ccc3[nH]c(=O)[nH]c3c2)cc1 | inactive | – |
| O=C1Nc2ccccc2/C1=C(\c1ccccc1)c1nc2ccccc2[nH]1 | – | IC50 [4]: 40 µM; IC50 [5]: 26 µM |
| Cc1ccc2[nH]c3c(c2c1)CCC1C3=NNC1c1ccccc1 (stereo unspecified) | inactive | – |
